Source: PubChem BioAssay (NCI)
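All cell lines were grown in 96-well plates and treated with compound for 48 hours. GI50 marks 50% less growth. TGI denotes the concentration required for complete inhibition of growth.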

Tests used:
Assay in all cases: NCI anticancer screen, dose series, 48 h
[1] = system: CAKI-1 renal
[2] = system: PC-3 prostate
[3] = system: KM12 colon
[4] = system: SK-MEL-28 melanoma
[5] = system: U251 CNS
[6] = system: BT-549 breast
[7] = system: HL-60(TB) leukemia
[8] = system: OVCAR-4 ovarian
[9] = system: MALME-3M melanoma
[10] = system: LOX IMVI melanoma

| SMILES | GI50 [1] [µM] | TGI [1] [µM] | GI50 [2] [µM] | TGI [2] [µM] | GI50 [3] [µM] | TGI [3] [µM] | GI50 [4] [µM] | TGI [4] [µM] | GI50 [5] [µM] | TGI [5] [µM] | GI50 [6] [µM] | TGI [6] [µM] | GI50 [7] [µM] | TGI [7] [µM] | GI50 [8] [µM] | TGI [8] [µM] | GI50 [9] [µM] | TGI [9] [µM] | GI50 [10] [µM] | TGI [10] [µM] |
| --- | --- | --- | --- | --- | --- | --- | --- | --- | --- | --- | --- | --- | --- | --- | --- | --- | --- | --- | --- | --- |
| CCC[CH2][Sn]([CH2]CCC)([CH2]CCC)[O]C(=O)CC | 0.0611 | 0.214 | 0.189 | 0.426 | 0.135 | 0.27 | 0.161 | 0.318 | 0.168 | 0.327 | 0.15 | 0.344 | 0.163 | 0.538 | 0.125 | 0.26 | 0.151 | 0.349 |  |  |
| CC/C(=C(/c1ccc(OCCN(C)C)cc1)c1ccc(OC(=O)CCCCC(=O)c2c(C)[nH]c(/C=C3\N=C(c4ccc[nH]4)C=C3OC)c2C)cc1)c1ccccc1 | 6.27 | 36.1 | 4.6 | 20.6 | 3.75 | 14.3 | 11.6 | 23.7 | 5.22 | 18.3 | 3.57 | 17 | 18 | 41.9 | 4.39 | 22.3 | 9.28 | 34.4 | 2.05 | 5.14 |
| CNCCCn1cc(C2=C(c3cn(C)c4ccccc34)C(=O)NC2=O)c2ccccc21 | 4.13 | 13.2 | 4.01 | 14.6 | 3.89 | 8.39 | 3.85 | 7.8 | 3.14 | 6.96 | 4.81 | 8.83 | 5.55 | 13.5 | 3.06 | 14.1 | 5.37 | 10.4 | 3.93 | 8.28 |
| O=C1NC(=Nc2ccccc2)S/C1=C\c1ccc2ncccc2c1 | > 25 | > 25 | 1.67 | > 25 | 1.62 | > 25 | > 25 | > 25 | > 5.13 | > 25 | > 25 | > 25 | 1.42 | > 25 | > 25 | > 25 | > 18.1 | > 25 | > 25 | > 25 |
| O=Cc1cc2c(cc1-c1c(C=O)ccc3c1OCO3)OCO2 |  | > 10 |  | > 10 |  | > 10 |  | > 10 |  | > 10 |  | > 10 |  | > 10 |  | > 10 |  | > 10 |  | > 10 |
| C#Cc1cccc(Nc2ncnc3cc(OC)c(OCCCCCCC(=O)NO)cc23)c1 | 0.261 | 3.04 | 0.273 | 5.38 | 0.197 | 3.46 | 0.136 | 1.47 | 0.151 | 4.07 | 0.783 | 5.69 | 0.334 | 1.7 | 0.374 | 5.34 | 0.037 | 0.763 | 0.195 | 1.81 |
| C/C1=C\CC[C@@]2(C)O[C@@H]2[C@H]2OC(=O)[C@@H](CN(C)C)[C@@H]2CC1 | 13.2 | 31.3 | 14.1 | 33.7 | 11.8 | 29.1 | 21.9 | 51.6 | 14.9 | 34.4 | 4.8 | 26.9 | 1.46 | 7.24 | 16.6 | 40 |  |  | 10.2 | 29.9 |
| COC(=O)/C=C/c1cc(O)c2oc(-c3ccc(O)c(O)c3)c(C(=O)OC)c2c1 | 1.42 | 15 | 0.437 | 13.1 | 0.439 | 9.38 | 1.92 | 11.1 | 0.606 | 13.4 | 1.5 | 11.9 | 0.14 | 1.52 | 0.901 | 12 | 0.397 | 14.4 | 0.367 | 10.3 |
| COc1cc(Nc2cn[nH]c2-c2ccc(Cl)cc2)cc(OC)c1OC | 2.34 | 26.2 | 8.18 | > 64 | 2.83 | 16.4 | 6.45 | 56.7 | 4.91 | 33.3 | 3.37 | 19.2 | 2.6 | 28.6 | 7.93 | > 100 | 4.51 | 45.8 | 5.62 | 20.7 |
| CC(SC(C)C(=O)N/N=C/c1cccc(Cl)c1)C(=O)N/N=C\c1cccc(Cl)c1 (centres undefined) | 61.4 | > 100 | 4.36 | 25.8 | 11.4 | 30.3 | 15.2 | 34.4 | 3.74 | 15.1 | 18.2 | 41.6 | 6.24 | > 100 | 1.63 | 3.35 | 13.9 | 35.7 | 3.03 | 10.5 |
| NC(=NCCCOc1ccc(Cl)cc1)Nc1ccc(C(F)(F)F)cc1 | 2.48 | 9.03 | 1.67 | 5.25 |  |  |  |  | 1.71 | 3.89 | 2.32 | 6.31 | 1.59 | 3.77 | 2.15 | 8.01 | 1.93 | 4.01 | 1.46 | 2.77 |
| CCCCc1c(OC)cc(O)c2c1C(=O)c1[nH]c(C(=O)O)c(O)c(=O)c1C2=O |  | > 100 |  | > 100 |  | > 100 |  | > 100 |  | 17.6 |  | 52.8 |  | > 100 |  | > 100 |  |  |  | > 100 |
| C=C(C=O)C1CCC2(C(=O)O)CCC3(C)C(CCC4C5(C)CCC(O)C(C)(C)C5CCC43C)C12 (centres undefined) |  |  | 2.76 | 23.2 | 1.61 | 3.39 | 1.96 | 4.62 | 1.64 | 3.74 | 1.68 | 6.67 | 4.1 | > 100 | 4.83 | 22.2 | 2.33 | 7.99 | 1.57 | 3.11 |
